Target: T1, recombinant human PLA2G2A (sPLA2-IIA) (Homo sapiens, UniProt P14555)
T1 sequence (P14555 21-144): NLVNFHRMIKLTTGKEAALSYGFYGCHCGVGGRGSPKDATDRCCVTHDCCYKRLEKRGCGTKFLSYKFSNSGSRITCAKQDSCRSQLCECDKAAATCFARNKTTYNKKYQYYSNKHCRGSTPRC
Assay: Susceptibility of phospholipid digestion by sPLA2-IIA (lens pieces in ATF with and without sPLA2, LCMS of released fatty acid)
Settings: phospholipid present in a silicone hydrogel contact lens body

Row | Susceptibility to digestion by sPLA2 enzymes found in human tears | SMILES
1 | not susceptible to digestion | CCCCCCCCCCCCCC(=O)OC[C@H](COP(=O)([O-])OCC[N+](C)(C)C)OC(=O)CCCCCCCCCCCCC [DMPC, 1,2-dimyristoyl-sn-glycero-3-phosphocholine]
2 | not susceptible to digestion | CCCCCCCC/C=C\CCCCCCCC(=O)OC[C@H](COP(=O)([O-])OCC[N+](C)(C)C)OC(=O)CCCCCCC/C=C\CCCCCCCC [DOPC, 1,2-dioleoyl-sn-glycero-3-phosphocholine]

From patent US12153287B2, “Sustained fatty acid release from contact lens” (CooperVision International Limited, priority 2022, dated 2024)
